US6706663B2, “Herbicidal 3-heterocyclic substituted benzisothiazole and benzisoxazole compounds” (Wyeth, priority 2000, dated 2004)

How the values were obtained:
SETVI (Setaria viridis) [1] = experiment: Postemergence herbicidal evaluation; type: in vivo, (L.) Beau; conditions: rate 0.0620 kg/ha
In short: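 Visual injury score (0-9: stand, vigor, malformation, size, chlorosis, overall appearance vs untreated control) taken four to five weeks post-spray. Two-week-old seedlings received about 0.0040 to 1.000 kg/ha active compound in acetone/water with 0.5% TWEEN 20.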

ORYSAT (Rice, Tebonnet) [2] = experiment: Preemergence herbicidal evaluation; type: in vivo, Oryza sativa, (L.) Tebonnet; conditions: preemergence, rated 4-5 weeks after treatment
ORYSAT (Rice, Tebonnet) [3] = experiment: Flooded paddy, post-transplant rice tolerance; type: in vivo, Oryza sativa, (L.) Tebonnet; conditions: flooded paddy, post-transplant rice; rate 0.1250 kg/ha; rated 3-4 weeks after treatment; 0-9 rating scale
In short: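 Scores (0-9) reflect visual injury relative to untreated plants in flooded silt loam. Each pot held two transplanted ten-day-old seedlings under 1.5 to 3 cm standing water in the greenhouse.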

[4] = tested on: CYPSE (Cyperus serotinus); experiment: Flooded paddy, preemergence weed control; type: in vivo, Rottb.; conditions: rate 0.1250 kg/ha, rated 3-4 weeks after treatment, 0-9 rating scale
Experimental: Results of herbicide evaluation are expressed on a rating scale (0-9). The scale is based upon a visual observation of plant stand, vigor, malformation, size, chlorosis and overall plant appearance as compared with a control.
Preemergence herbicidal activity under flooded paddy conditions is determined as follows: plant seeds or propagating organs are planted in the top 0.5 cm of silt loam soil in 32 oz. plastic containers with a diameter of 10.5 cm and no drainage holes. Water is added to these containers and maintained at 1.5 to 3 cm above the soil surface for the duration of the experiment. The test compounds are applied as aqueous/acetone mixtures 50/50 v/v pipetted directly into the flood water to give the equivalent of about 0.0080 to 0.1250 kg/ha of active ingredient. The treated containers are placed on greenhouse benches and cared for in accordance with conventional greenhouse procedures. Three to four weeks after treatment, the test is terminated and each container is examined and herbicidal effect rated according to the rating system provided in Example 87.

[5] = tested on: IPOHE (Ipomoea hederacea); experiment: Postemergence herbicidal evaluation; type: in vivo, (L.) Jacq.; conditions: rate 0.0620 kg/ha
In short: (§1)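 Seedlings grown about two weeks in flats, sprayed, then kept under standard greenhouse care. Rated visually 4–5 weeks after treatment on a 0–9 scale (stand, vigour, malformation, size, chlorosis, overall appearance) relative to untreated control; repeat tests averaged.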

[6] = tested on: ABUTH (Abutilon theophrasti); experiment: Postemergence herbicidal evaluation; type: in vivo, Medic.; conditions: rate 0.0620 kg/ha
In short: as §1

[7] = tested on: AMBEL (Ambrosia artemisifolia); experiment: Postemergence herbicidal evaluation; type: in vivo, L.; conditions: rate 0.0620 kg/ha
In short: as §1

[8] = tested on: CASOB (Cassia obtusifolia); experiment: Postemergence herbicidal evaluation; type: in vivo, L.; conditions: rate 0.0620 kg/ha
In short: as §1

[9] = tested on: CHEAL (Chenopodium album); experiment: Postemergence herbicidal evaluation; type: in vivo, L.; conditions: rate 0.0620 kg/ha
In short: as §1

ORYSAT (Rice, Tebonnet) [10] = experiment: Postemergence herbicidal evaluation; type: in vivo, Oryza sativa, (L.) Tebonnet; conditions: rate 0.0620 kg/ha
In short: as §1

[11] = tested on: TRZAWR (Wheat, Winter, cv Riband); experiment: Postemergence herbicidal evaluation; type: in vivo, Triticum aestivum; conditions: rate 0.0620 kg/ha
In short: as §1

[12] = tested on: MOOVA (Monochoria vaginalis); experiment: Flooded paddy, preemergence weed control; type: in vivo, Presl.; conditions: rate 0.1250 kg/ha, rated 3-4 weeks after treatment, 0-9 rating scale
In short: (§2)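 Preemergence, flooded: propagules planted at 0.5 cm depth in silt loam, water level maintained at 1.5 to 3 cm over soil, containers kept on greenhouse benches. Activity scored 0-9 by eye relative to a control plant.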

ZEAMX (Corn, Field) [13] = experiment: Preemergence herbicidal evaluation; type: in vivo, Zea mays, L.; conditions: preemergence, rated 4-5 weeks after treatment
[14] = tested on: AMBEL (Ambrosia artemisifolia); experiment: Preemergence herbicidal evaluation; type: in vivo, L.; conditions: preemergence, rated 4-5 weeks after treatment
In short: (§3)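 Scores (0–9) reflect visual comparison with control plants for stand, vigor, malformation, size and chlorosis. Seeds in potting soil received a post-planting spray of compound in aqueous acetone and grew in a greenhouse until assessment 4–5 weeks later.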

[15] = tested on: CASOB (Cassia obtusifolia); experiment: Preemergence herbicidal evaluation; type: in vivo, L.; conditions: preemergence, rated 4-5 weeks after treatment
In short: as §3

[16] = tested on: CHEAL (Chenopodium album); experiment: Preemergence herbicidal evaluation; type: in vivo, L.; conditions: preemergence, rated 4-5 weeks after treatment
In short: as §3

[17] = tested on: ECHCG (Echinochloa crus-galli); experiment: Postemergence herbicidal evaluation; type: in vivo, (L.) Beau; conditions: rate 0.0620 kg/ha
In short: as §1

[18] = tested on: GLXMAW (Soybean, Williams); experiment: Postemergence herbicidal evaluation; type: in vivo, Glycine max, (L.) Merr. cv Williams; conditions: rate 0.0620 kg/ha
In short: as §1

[19] = tested on: ABUTH (Abutilon theophrasti); experiment: Preemergence herbicidal evaluation; type: in vivo, Medic.; conditions: preemergence, rated 4-5 weeks after treatment
[20] = tested on: TRZAWR (Wheat, Winter, cv Riband); experiment: Preemergence herbicidal evaluation; type: in vivo, Triticum aestivum; conditions: preemergence, rated 4-5 weeks after treatment
In short: as §3

CYPIR (Cyperus iria) = experiment: Flooded paddy, preemergence weed control; type: in vivo; conditions: rate 0.1250 kg/ha, rated 3-4 weeks after treatment, 0-9 rating scale
In short: as §2

[21] = tested on: ECHORC (Echinochloa oryzoides); experiment: Flooded paddy, preemergence weed control; type: in vivo, Echinochloa oryzoides (Ard.) Fritsch.; conditions: rate 0.1250 kg/ha, rated 3-4 weeks after treatment, 0-9 rating scale
In short: as §2

[22] = tested on: IPOHE (Ipomoea hederacea); experiment: Preemergence herbicidal evaluation; type: in vivo, (L.) Jacq.; conditions: preemergence, rated 4-5 weeks after treatment
GALAP (Galium aparine) [23] = experiment: Postemergence herbicidal evaluation; type: in vivo; conditions: rate 0.0620 kg/ha
In short: as §1

ZEAMX (Corn, Field) [24] = experiment: Postemergence herbicidal evaluation; type: in vivo, Zea mays, L.; conditions: rate 0.0620 kg/ha
In short: as §1

[25] = tested on: ECHCG (Echinochloa crus-galli); experiment: Preemergence herbicidal evaluation; type: in vivo, (L.) Beau; conditions: preemergence, rated 4-5 weeks after treatment
In short: as §3

SETVI (Setaria viridis) [26] = experiment: Preemergence herbicidal evaluation; type: in vivo, (L.) Beau; conditions: preemergence, rated 4-5 weeks after treatment
In short: as §3

[27] = tested on: SAGPY (Sagittaria pygmaea); experiment: Flooded paddy, preemergence weed control; type: in vivo, L.; conditions: rate 0.1250 kg/ha, rated 3-4 weeks after treatment, 0-9 rating scale
In short: as §2

[28] = tested on: GLXMAW (Soybean, Williams); experiment: Preemergence herbicidal evaluation; type: in vivo, Glycine max, (L.) Merr. cv Williams; conditions: preemergence, rated 4-5 weeks after treatment
GALAP (Galium aparine) [29] = experiment: Preemergence herbicidal evaluation; type: in vivo; conditions: preemergence, rated 4-5 weeks after treatment
In short: as §3

Compound	Postemergence herbicidal rating, SETVI (SETVI (Setaria viridis) [1])	ORYSAT preemergence herbicidal rating (ORYSAT (Rice, Tebonnet) [2]; Rate 0.2500 kg/ha)	herbicidal rating, ORYSAT (rice tolerance) (ORYSAT (Rice, Tebonnet) [3])	herbicidal rating, CYPSE [4]	Postemergence herbicidal rating, IPOHE [5]	Postemergence herbicidal rating, ABUTH [6]	Postemergence herbicidal rating, AMBEL [7]	Postemergence herbicidal rating, CASOB [8]	Postemergence herbicidal rating, CHEAL [9]	Postemergence herbicidal rating, ORYSAT (ORYSAT (Rice, Tebonnet) [10])	Postemergence herbicidal rating, TRZAWR [11]	herbicidal rating, MOOVA [12]	ZEAMX preemergence herbicidal rating (ZEAMX (Corn, Field) [13]; Rate 0.2500 kg/ha)	Postemergence herbicidal rating, ECHCG [17]	Postemergence herbicidal rating, GLXMAW [18]	herbicidal rating, CYPIR (CYPIR (Cyperus iria))	herbicidal rating, ECHORC [21]	Postemergence herbicidal rating, GALAP (GALAP (Galium aparine) [23])	Postemergence herbicidal rating, ZEAMX (ZEAMX (Corn, Field) [24])	herbicidal rating, SAGPY [27]	further results
C[C@H]1O[C@@H]1c1nsc2ccc(-n3c(=O)cc(C(F)(F)F)n(C)c3=O)cc12 [Compound 14, 3-[3-[(1R,2R)-1,2-epoxypropyl]-1,2-benzisothiazol-5-yl]-1-methyl-6-(trifluoromethyl)uracil]	3.0	9.0	9.0	8.0	9.0	9.0	9.0	2.0	8.0	6.0	6.5	9.0	8.5	2.0	7.5	9.0	8.0	9.0	6.0	9.0	AMBEL preemergence herbicidal rating ([14]; Rate 0.2500 kg/ha): 9.0; CASOB preemergence herbicidal rating ([15]; Rate 0.2500 kg/ha): 9.0; CHEAL preemergence herbicidal rating ([16]; Rate 0.2500 kg/ha): 9.0; ABUTH preemergence herbicidal rating ([19]; Rate 0.2500 kg/ha): 9.0; TRZAWR preemergence herbicidal rating ([20]; Rate 0.2500 kg/ha): 9.0; IPOHE preemergence herbicidal rating ([22]; Rate 0.2500 kg/ha): 9.0; ECHCG preemergence herbicidal rating ([25]; Rate 0.2500 kg/ha): 9.0; SETVI preemergence herbicidal rating (SETVI (Setaria viridis) [26]; Rate 0.2500 kg/ha): 9.0; GLXMAW preemergence herbicidal rating ([28]; Rate 0.2500 kg/ha): 8.0; GALAP preemergence herbicidal rating (GALAP (Galium aparine) [29]; Rate 0.2500 kg/ha): 9.0
Cn1c(C(F)(F)F)cc(=O)n(-c2cc3c(-c4ccccn4)nsc3cc2F)c1=O [Compound 25, 3-[6-fluoro-3-(2-pyridyl)-1,2-benzisothiazol-5-yl]-1-methyl-6-(trifluoromethyl)uracil]	9.0	–	9.0	9.0	9.0	9.0	9.0	9.0	9.0	3.0	4.5	9.0	–	3.0	9.0	9.0	9.0	4.0	7.0	9.0	ORYSAT preemergence herbicidal rating (ORYSAT (Rice, Tebonnet) [2]; Rate 0.1250 kg/ha): 9.0; ZEAMX preemergence herbicidal rating (ZEAMX (Corn, Field) [13]; Rate 0.1250 kg/ha): 8.0; AMBEL preemergence herbicidal rating ([14]; Rate 0.1250 kg/ha): 9.0; CASOB preemergence herbicidal rating ([15]; Rate 0.1250 kg/ha): 9.0; CHEAL preemergence herbicidal rating ([16]; Rate 0.1250 kg/ha): 9.0; ABUTH preemergence herbicidal rating ([19]; Rate 0.1250 kg/ha): 9.0; TRZAWR preemergence herbicidal rating ([20]; Rate 0.1250 kg/ha): 9.0; IPOHE preemergence herbicidal rating ([22]; Rate 0.1250 kg/ha): 9.0; ECHCG preemergence herbicidal rating ([25]; Rate 0.1250 kg/ha): 9.0; SETVI preemergence herbicidal rating (SETVI (Setaria viridis) [26]; Rate 0.1250 kg/ha): 9.0; GLXMAW preemergence herbicidal rating ([28]; Rate 0.1250 kg/ha): 7.0; GALAP preemergence herbicidal rating (GALAP (Galium aparine) [29]; Rate 0.1250 kg/ha): 5.0
Cn1c(C(F)(F)F)cc(=O)n(-c2ccc3snc(-c4cccnc4)c3c2)c1=O [Compound 11, 1-methyl-3-[3-(3-pyridyl)-1,2-benzisothiazol-5-yl]-6-(trifluoromethyl)uracil]	7.0	5.0	3.0	0.0	9.0	9.0	9.0	1.0	8.0	3.5	3.5	9.0	5.5	0.0	6.5	9.0	5.0	6.0	5.5	0.0	AMBEL preemergence herbicidal rating ([14]; Rate 0.2500 kg/ha): 9.0; CASOB preemergence herbicidal rating ([15]; Rate 0.2500 kg/ha): 9.0; CHEAL preemergence herbicidal rating ([16]; Rate 0.2500 kg/ha): 9.0; ABUTH preemergence herbicidal rating ([19]; Rate 0.2500 kg/ha): 9.0; TRZAWR preemergence herbicidal rating ([20]; Rate 0.2500 kg/ha): 4.0; IPOHE preemergence herbicidal rating ([22]; Rate 0.2500 kg/ha): 7.0; ECHCG preemergence herbicidal rating ([25]; Rate 0.2500 kg/ha): 8.0; SETVI preemergence herbicidal rating (SETVI (Setaria viridis) [26]; Rate 0.2500 kg/ha): 9.0; GLXMAW preemergence herbicidal rating ([28]; Rate 0.2500 kg/ha): 7.5; GALAP preemergence herbicidal rating (GALAP (Galium aparine) [29]; Rate 0.2500 kg/ha): 9.0
